The values that follow come from US9174980B2, “Heterocyclic compounds as inhibitors of leukotriene production” (Boehringer Ingelheim International GmbH, priority 2012, dated 2015).

Where only a bound is given, the exact number is not on record here.

Broadly, the IC50 is the point on the concentration scale where inhibition reaches its midpoint.

Assay [1] relates to synthesis of LTB4 in human whole blood. Kind of assay: Human whole blood assay (calcimycin-stimulated LTB4 synthesis). It is filed as cell-based. As to conditions: Homo sapiens; read-out: Human Whole Blood LTB4 Assay for FLAP (IC50 nM). The method, boiled down: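 LTB4 levels in plasma were measured by antibody-based HTRF after heparinized human whole blood, pretreated with compound (15 min, 37° C), was challenged with 20 μM calcimycin for 30 min at 37° C.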

Assay [2] has as its target T1, recombinant human FLAP protein (Homo sapiens, UniProt P20292).
T1 construct: made in house; host or cells: Sf9 insect cells (membrane fraction, 100,000 x g pellet)
T1 sequence (P20292 1-161): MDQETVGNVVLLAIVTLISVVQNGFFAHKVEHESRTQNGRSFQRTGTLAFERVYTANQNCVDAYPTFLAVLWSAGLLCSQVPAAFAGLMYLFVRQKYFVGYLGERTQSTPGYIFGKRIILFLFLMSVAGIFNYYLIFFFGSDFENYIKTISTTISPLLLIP
Kind of assay: FLAP binding assay (Scintillation Proximity Assay, displacement of [125I]L-691,831). To be noted: read-out: Human FLAP SPA Binding (IC50 nM). The method, boiled down:
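Scintillation proximity displacement format: 0.08 nM iodinated MK-591 analog [125I]L-691,831 competes with test compound for human FLAP in sf9 insect-cell membranes (5 μg/well, WGA beads), 2 h with shaking, pH 7.5 Tris buffer. 10 μM cold L-691,831 defines non-specific binding.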
Background: SPA uses beads or plates that emit light when radiolabelled molecules are held near them.

Turning to `Nc1ncc(-c2ccc(C3(c4c[nH]c5cccnc45)CCC3)cc2)cn1` [Example 108, 5-{4-[1-(1H-pyrrolo[3,2-b]pyridin-3-yl)cyclobutyl]phenyl}pyrimidin-2-amine], the half-inhibitory concentration (IC50) in assay [1] was 360 nM; in assay [2], 3 nM.
As for `Nc1ncc(-c2ccc(C3(c4c[nH]c5cnccc45)CCC3)cc2)cn1` [Example 109, 5-{4-[1-(1H-pyrrolo[2,3-c]pyridin-3-yl)cyclobutyl]phenyl}pyrimidin-2-amine], the values for the IC50 in assay [1] and in assay [2] were 71 nM and 1.3 nM, respectively.
In the same order, the values of `Nc1ncc(-c2ccc(C3(c4c[nH]c5ccncc45)CCC3)cc2)cn1` [Example 110, 5-{4-[1-(1H-pyrrolo[3,2-c]pyridin-3-yl)cyclobutyl]phenyl}pyrimidin-2-amine] are 1500 nM and 87 nM.
For `Nc1ncc(-c2ccc(C3(c4cn(CCO)c5ccccc45)CCC3)cc2)cn1` [Example 111, 2-(3-{1-[4-(2-aminopyrimidin-5-yl)phenyl]cyclobutyl}-1H-indol-1-yl)ethanol] the same measures were over 5000 nM and 1.5 nM.
`CC(C)C(C)(c1ccc(-c2cnc(N)nc2)cc1)c1nc2ccccc2o1` (centres unmarked) [Example 112, 5-{4-[2-(1,3-benzoxazol-2-yl)-3-methylbutan-2-yl]phenyl}pyrimidin-2-amine]: the figures for the IC50 in assay [1] and in assay [2] were 570 nM and 3.2 nM, respectively.
Turning to `Nc1ncc(-c2ccc(C3(c4c[nH]c5c(C(=O)N6CC(O)C6)cccc45)CCC3)cc2)cn1` [Example 113, (3-{1-[4-(2-aminopyrimidin-5-yl)phenyl]cyclobutyl}-1H-indol-7-yl)(3-hydroxyazetidin-1-yl)methanone], the IC50 in assay [1] came to 100 nM; in assay [2] it was 1.1 nM.
Turning to `Nc1ncc(-c2ccc(C3(c4c[nH]c5c(C(=O)N6CCS(=O)(=O)CC6)cccc45)CCC3)cc2)cn1` [Example 114], the IC50 in assay [1] was determined as 380 nM; in assay [2] it was 2.3 nM.
In the case of `CN(CCO)C(=O)c1cccc2c(C3(c4ccc(-c5cnc(N)nc5)cc4)CCC3)c[nH]c12` [Example 115, 3-{1-[4-(2-aminopyrimidin-5-yl)phenyl]cyclobutyl}-N-(2-hydroxyethyl)-N-methyl-1H-indole-7-carboxamide], the half-inhibitory concentration (IC50) in assay [1] stood at 1100 nM; in assay [2], 2.6 nM.
As to `COCCN(C)C(=O)c1cccc2c(C3(c4ccc(-c5cnc(N)nc5)cc4)CCC3)c[nH]c12` [Example 116, 3-{1-[4-(2-aminopyrimidin-5-yl)phenyl]cyclobutyl}-N-(2-methoxyethyl)-N-methyl-1H-indole-7-carboxamide], the half-inhibitory concentration (IC50) in assay [1] worked out at 270 nM; in assay [2], 2.5 nM.
Turning to `NC(=O)c1cccc2c(C3(c4ccc(-c5cnc(N)nc5)cc4)CCC3)c[nH]c12` [Example 117, 3-{1-[4-(2-aminopyrimidin-5-yl)phenyl]cyclobutyl}-1H-indole-7-carboxamide], the IC50 in assay [1] amounted to 30 nM; in assay [2], 1.1 nM.
In the case of `Nc1ncc(-c2ccc(C3(c4c[nH]c5ccccc45)CCC3)cc2)cc1CO` [Example 118, [2-amino-5-[4-[1-(1H-indol-3-yl)cyclobutyl]phenyl]-3-pyridyl]methanol], the values for the concentration for half-maximal inhibition (IC50) in assay [1] and in assay [2] were 69 nM and 1.6 nM, respectively.
For `Nc1ncc(-c2ccc(C3(c4c[nH]c5c(C(=O)NCCO)cccc45)CCC3)cc2)cn1` [Example 119, 3-{1-[4-(2-aminopyrimidin-5-yl)phenyl]cyclobutyl}-N-(2-hydroxyethyl)-1H-indole-7-carboxamide] the same measures were 170 nM and 1.5 nM.
Consider `Nc1ncc(-c2ccc(C3(c4cn(CCOCCO)c5ccccc45)CCC3)cc2)cn1` [Example 120, 2-[2-(3-{1-[4-(2-aminopyrimidin-5-yl)phenyl]cyclobutyl}-1H-indol-1-yl)ethoxy]ethanol], for which the half-inhibitory concentration (IC50) in assay [1] is over 5000 nM; in assay [2], 4.7 nM.
`Nc1ncc(-c2ccc(C3(c4nnc(-c5ccccc5)[nH]4)CCC3)cn2)cn1` [Example 121, 5-{5-[1-(5-phenyl-4H-1,2,4-triazol-3-yl)cyclobutyl]pyridin-2-yl}pyrimidin-2-amine]: the values for the 50% inhibitory concentration (IC50) in assay [1] and in assay [2] were 810 nM and 8.7 nM, respectively.
Regarding `Cn1cc(C(c2ccc(-c3cnc(N)nc3)nc2)C(C)(C)C)c2ccccc21` (centres unmarked) [Example 122, 5-{5-[2,2-dimethyl-1-(1-methyl-1H-indol-3-yl)propyl]pyridin-2-yl}pyrimidin-2-amine], the figures for the 50% inhibitory concentration (IC50) in assay [1] and in assay [2] were over 5000 nM and 75 nM, respectively.
Turning to `COC(=O)Cn1cc(C2(c3ccc(-c4cnc(N)nc4)cc3)CCC2)c2ccccc21` [Example 123, methyl (3-{1-[4-(2-aminopyrimidin-5-yl)phenyl]cyclobutyl}-1H-indol-1-yl)-acetate], the 50% inhibitory concentration (IC50) in assay [1] was over 5000 nM; in assay [2], 7.9 nM.
Take `Nc1ncc(-c2ccc(C3(c4cn(CC(=O)O)c5ccccc45)CCC3)cc2)cn1` [Example 124, (3-{1-[4-(2-aminopyrimidin-5-yl)phenyl]cyclobutyl}-1H-indol-1-yl)acetic acid]: the results for the IC50 in assay [1] and in assay [2] were over 5000 nM and 5.5 nM, respectively.
In the case of `Nc1ncc(-c2ccc(C3(c4nc5ncccc5[nH]4)CCC3)cc2)cn1` [Example 125, 5-{4-[1-(1H-imidazo[4,5-b]pyridin-2-yl)cyclobutyl]phenyl}pyrimidin-2-amine], the IC50 turned out to be 3400 nM in assay [1] and 250 nM in assay [2].
For the molecule `Nc1ncc(-c2ccc(C3(c4nc5cnccc5[nH]4)CCC3)cc2)cn1` [Example 126, 5-{4-[1-(1H-imidazo[4,5-c]pyridin-2-yl)cyclobutyl]phenyl}pyrimidin-2-amine], the concentration for half-maximal inhibition (IC50) in assay [1] stood at 1800 nM; in assay [2], 71 nM.
In the case of `Nc1ncc(-c2ccc(C3(c4nc5ccccc5o4)CCC3)cc2)cn1` [Example 127, 5-{4-[1-(1,3-benzoxazol-2-yl)cyclobutyl]phenyl}pyrimidin-2-amine], the IC50 in assay [1] was 1900 nM; in assay [2], 7.2 nM.
For `Nc1ncc(-c2ccc(C3(c4nc5ccccc5s4)CCC3)cc2)cn1` [Example 128, 5-{4-[1-(1,3-benzothiazol-2-yl)cyclobutyl]phenyl}pyrimidin-2-amine], the IC50 in assay [1] was found to be 2300 nM; in assay [2], 8.1 nM.
For `Cc1ccc(-c2nnc(C3(c4ccc(-c5cnc(N)nc5)cc4)CCC3)[nH]2)cn1` [Example 129, 5-(4-{1-[5-(6-methylpyridin-3-yl)-4H-1,2,4-triazol-3-yl]cyclobutyl}phenyl)pyrimidin-2-amine] the same measures were 4000 nM and 7.6 nM.
Take `c1cnc2[nH]cc(C3(c4ccc(-c5cnc6[nH]ccc6c5)cc4)CCC3)c2c1` [Example 130, 3-{1-[4-(1H-pyrrolo[2,3-b]pyridin-5-yl)phenyl]cyclobutyl}-1H-pyrrolo[2,3-b]pyridine]: the values for the 50% inhibitory concentration (IC50) in assay [1] and in assay [2] were 140 nM and 1.5 nM, respectively.
Consider `Cc1ccc(-c2nnc(C3(c4ccc(-c5cnc(N)nc5)cc4)CCC3)s2)cn1` [Example 131, 5-(4-{1-[5-(6-methylpyridin-3-yl)-1,3,4-thiadiazol-2-yl]cyclobutyl}phenyl)pyrimidin-2-amine], for which the IC50 in assay [1] was found to be 920 nM; in assay [2] it was 5.5 nM.
Turning to `CN(CCO)C(=O)Cn1cc(C2(c3ccc(-c4cnc(N)nc4)cc3)CCC2)c2ccccc21` [Example 132, 2-(3-{1-[4-(2-aminopyrimidin-5-yl)phenyl]cyclobutyl}-1H-indol-1-yl)-N-(2-hydroxyethyl)-N-methylacetamide], the IC50 in assay [1] was over 5000 nM; in assay [2], 7.2 nM.
Take `Nc1ncc(-c2ccc(C3(c4cn(CC(=O)N5CC(O)C5)c5ccccc45)CCC3)cc2)cn1` [Example 133, 2-(3-{1-[4-(2-aminopyrimidin-5-yl)phenyl]cyclobutyl}-1H-indol-1-yl)-1-(3-hydroxyazetidin-1-yl)ethanone]: the IC50 in assay [1] is over 5000 nM; in assay [2], 7.5 nM.
Turning to `Nc1ncc(-c2ccc(C3(c4c[nH]c5c(C(=O)N6CC[C@@H](O)C6)cccc45)CCC3)cc2)cn1` [Example 134, (3-{1-[4-(2-aminopyrimidin-5-yl)phenyl]cyclobutyl}-1H-indol-7-yl)[(3R)-3-hydroxypyrrolidin-1-yl]methanone], the IC50 amounted to 270 nM in assay [1] and 1.8 nM in assay [2].
With `Nc1ncc(-c2ccc(C3(c4c[nH]c5c(C(=O)N6CC[C@H](O)C6)cccc45)CCC3)cc2)cn1` [Example 135, (3-{1-[4-(2-aminopyrimidin-5-yl)phenyl]cyclobutyl}-1H-indol-7-yl)[(3S)-3-hydroxypyrrolidin-1-yl]methanone], the IC50 was 500 nM in assay [1] and 2.3 nM in assay [2].
As for `Cn1c(C2(c3ccc(-c4cnc(N)nc4)cc3)CCC2)nc2ccccc21` [Example 136, 5-{4-[1-(1-methyl-1H-benzimidazol-2-yl)cyclobutyl]phenyl}pyrimidin-2-amine], the IC50 was over 5000 nM in assay [1] and 190 nM in assay [2].
In the case of `Nc1ncc(-c2ccc(C3(c4nc5ccccc5[nH]4)CCC3)cn2)cn1` [Example 137, 5-{5-[1-(1H-benzimidazol-2-yl)cyclobutyl]pyridin-2-yl}pyrimidin-2-amine], the 50% inhibitory concentration (IC50) was over 5000 nM in assay [1] and 410 nM in assay [2].
For `Nc1ncc(-c2ccc(C3(c4nc5ccccc5o4)CCC3)cn2)cn1` [Example 138, 5-{5-[1-(1,3-benzoxazol-2-yl)cyclobutyl]pyridin-2-yl}pyrimidin-2-amine], the half-maximal inhibitory concentration (IC50) in assay [1] came to 990 nM; in assay [2], 18 nM.
